Values quoted from earlier work, collected in patent US6803060B2, “Composition to boost libido” (priority 2000, dated 2004).

What was measured:
corpus cavernosum = settings: for erection after injection into the corpus cavernosum: injected directly into the corpus cavernosum with a hypodermic needle; for duration of erection after injection: intracavernosal injection, appropriate dose
impotentia erectionis = settings: buccal, 100 I.U. three times a day for 14 days
impotent men = settings: ingestion
[1] = test system: male erectile dysfunction; settings: alone or in combination with papaverine

CCN(CC)CCOC(=O)C(Cc1cccc2ccccc12)CC1CCCO1 (mixture of isomers) [naftidrofuryl]
erection after injection into the corpus cavernosum (corpus cavernosum): caused erection

CN(C)CCCN1c2ccccc2CCc2ccccc21 [imipramine]
erection after injection into the corpus cavernosum (corpus cavernosum): caused erection

CC(COc1ccccc1)N(CCCl)Cc1ccccc1 (stereo not shown) [phenoxybenzamine]
erection after injection into the corpus cavernosum (corpus cavernosum): caused erection
duration of erection after injection (corpus cavernosum): unrelenting erection lasting for hours

COc1ccc(Cc2nccc3cc(OC)c(OC)cc23)cc1OC [papaverine]
erection after injection into the corpus cavernosum (corpus cavernosum): caused erection
duration of erection after injection (corpus cavernosum): unrelenting erection lasting for hours

COc1ccc(CCN(C)CCCC(C#N)(c2ccc(OC)c(OC)c2)C(C)C)cc1OC (stereo not shown) [verapamil]
erection after injection into the corpus cavernosum (corpus cavernosum): caused erection

CC[C@H](C)[C@@H]1NC(=O)[C@H](Cc2ccc(O)cc2)NC(=O)[C@@H](N)CSSC[C@@H](C(=O)N2CCC[C@H]2C(=O)N[C@@H](CC(C)C)C(=O)NCC(N)=O)NC(=O)[C@H](CC(N)=O)NC(=O)[C@H](CCC(N)=O)NC1=O [oxytocin]
patients with improvement of impotentia erectionis (impotentia erectionis): 12 of the 16

COC(=O)[C@@H]1[C@H]2C[C@H]3c4[nH]c5ccccc5c4CCN3C[C@@H]2CC[C@@H]1O [yohimbine]
treated patients reporting complete satisfaction (impotent men): 5%
subjective improvement in erectile ability (impotent men; impotent men treated): 38%

Cc1ccc(N(CC2=NCCN2)c2cccc(O)c2)cc1 [phentolamine]
erection after injection into the corpus cavernosum (corpus cavernosum): caused erection

CC(=O)Oc1cc(C(C)C)c(OCCN(C)C)cc1C [thymoxamine]
erection after injection into the corpus cavernosum (corpus cavernosum): caused erection

CCCCC[C@H](O)/C=C/[C@H]1[C@H](O)CC(=O)[C@@H]1CCCCCCC(=O)O [prostaglandin E1]
erectile response [1]: improved erectile response
